Reference: US12486227B2, “Small molecules for cancer therapy that reduce the expression of transcription factors KLF5 and EGR-1” (University of Florida Research Foundation, Incorporated, priority 2019, dated 2025)
pEC50, pIC50: −log10 of the molar value. Where two headings read alike, the source gives them in different places.

Legend:
[1] = tested on: DLD-1, HCT116, HT29, and SW620 cells; assay: Cell viability (Cell Titer-Glo) of four CRC cell lines; type: cell-based, human; details: 24 h, FIGS. 2A-C
Procedure: SR18662 is potent inhibitor of CRC cell growth in vitro. […]. To examine the impact of these compounds on viability of CRC cell lines, we performed cell proliferation and cell growth assays using DLD-1 and HCT116 CRC cells. […] […]. Cell viability. DLD-1, HCT116, HT29, and SW620 cells were seeded in 96 well plate format and treated with DMSO or with compounds dissolved in DMSO in the range of 0.001 to 20 μM final concertation for 24 h and analyzed with the Cell Titer-Glo luciferase assay system (Promega) using a SpectraMax M3 (Molecular Devices) plate reader. The IC50 values were calculated using GraphPad Prism version 5.00 for Windows (GraphPad Software).

[2] = tested on: HT-29 colorectal cancer cell line; assay: MTT growth assay, HT-29; type: cell-based; details: Homo sapiens, Table 1
Text: The observed activity is greater than that previously seen for ML264.

[3] = tested on: DLD-1 and HCT116 CRC cells; assay: Cell cycle analysis by flow cytometry (propidium iodide); type: cell-based, human; details: 10 μM, over three days, vs vehicle, ML264, SR15006
Procedure: SR18662 alters the cell cycle pattern of CRCs. […] We have also evaluated the impact of SR15006 and SR18662 on cell cycle progression. We treated DLD-1 and HCT116 CRC cells over the course of three days with vehicle or 1 μM or 10 μM of test compound and then analyzed cell cycle using flow cytometry.
Cell proliferation, cell cycle and apoptosis assays. For cell proliferation experiments, cell cycle, and apoptosis determination, DLD-1 and HCT116 cells were treated with 1 or 10 μM of each compound or with vehicle (DMSO). The cells were collected at 24, 48, and 72 h post-treatment and analyzed as previously described (24). Each experiment was performed in triplicate.

[4] = tested on: DLD-1-derived tumor xenografts; assay: DLD-1 xenograft tumor growth in nude mice; type: in vivo, mouse
Procedure: SR18862 inhibits the growth of CRC xenografts in vivo. To evaluate SRI8662 in an in vivo model we used CRC cells for a mouse xenograft study. As described in more detail in the Examples section, nude mice were injected with DLD-1 CRC cells. Tumors were allowed to grow to an approximate size of 100 mm^3, and then mice were injected with vehicle or with varied concentrations of SR18662, given once a day or twice a day for five days, followed by two days without injection, and then followed by five days with injections. The experiment was completed the day after the last injection. […] Significant differences in tumor size are apparent at the end of the treatment schedule (FIG. 6B). To further characterize the impact of SR18662 on the features of isolated tumors, we compared vehicle-treated mice with mice that had been treated with SR18662 twice a day. […] Because SR18662 had induced cell apoptosis and death in the in vitro setting, we stained the xenografts with PanCK and TUNEL to estimate the levels of apoptosis in the in vivo context.
Xenografts. All mice studies were approved by the Stony Brook University Institutional Animal Care and Use Committee (IACUC) and performed in accordance with institutional policies and NIH guidelines. […] Tumor volume was determined by caliper measurement and calculated by the established method (25). […] Mice were monitored and weighed every two days. […]

DLD-1 colon cancer cells = assay: MTT viability assay, DLD-1; type: cell-based; details: Homo sapiens
Text: Specific Examples of compounds of the present disclosure have EC50 values estimated using a cell-based assay for binding to the KLF5 promoter and, in many cases, a follow-up viability assay (MTT) using DLD-1 colon cancer cells, a cell line known to highly express KLF5 and whose growth is adversely affected by the reduction of KLF5 levels. Assay protocols follow those described in the literature.^22,23 Other assays that are not described here but that are standard in the field may also be useful in establishing mechanism of action of these compounds.

human KLF5 promoter = assay: KLF5 promoter activity luciferase assay in DLD-1/pGL4.18hKLF5p cells; type: cell-based; details: Homo sapiens, DLD-1
Procedure: To examine the impact of these compounds on viability of CRC cell lines, we performed cell proliferation and cell growth assays using DLD-1 and HCT116 CRC cells. […] KLF5 promoter activity assay. DLD-1/pGL4.18hKLF5p cells were seeded in 96 well plate format and treated with DMSO or with test compounds dissolved in DMSO in the range of 0.001 to 20 μM final concentration for 24 h and the human KLF5 promoter activity was determined with the ONE-Glo luciferase assay system (Promega) using a SpectramMax M3 (Molecular Devices) plate reader. The IC50 values were calculated using GraphPad Prism version 5.00 for Windows (GraphPad Software) (22).

Cyclin D1, E, A2, and B1 = assay: Western blot of cyclin levels; type: cell-based, human; details: DLD-1 and HCT116, 1 μM or 10 μM, 72 h
Text: Cyclins and their appropriate cyclin-dependent kinases form a regulatory network that allow cells to progress through the cell cycle (39, 40). […] SR15006, or SR18662, as compared to vehicle-treated cells. Thus, we investigated if these changes are accompanied by differences in the expression levels of cyclins. We focused our attention on Cyclin D1, E, A2, and B1, as we have previously shown that ML264 has inhibitory effect on their levels (24). […] Additionally, in contrast to ML264 or SR15006, SR18862 induced apoptosis and cell death.
Western blot analysis. Total protein was extracted from cells with Laemmli buffer and the analysis was performed as described previously (24).

EC50 [2]: 40 nM | EC50 (DLD-1 colon cancer cells; MTT, Table 1, read-out: EC50 (nM) DLD-1): 1.7 nM | pEC50 (DLD-1 colon cancer cells; Table 2, read-out: Approximate potency (EC50 · mol/L) (DLD1, MTT assay)): 8.77 | pIC50 (human KLF5 promoter; 24 h treatment, FIG. 1B, read-out: IC50, human KLF5 promoter activity): 8.36 | pIC50 (human KLF5 promoter; Table 1, comparison of ML264 and SR18662, read-out: luciferase IC50): 8.36 | pEC50 (human KLF5 promoter; Table 2, read-out: Approximate potency (EC50 · mol/L) (luciferase)): 8.36
SMILES: CS(=O)(=O)N1CCN(C(=O)CNC(=O)/C=C/c2ccc(Cl)c(Cl)c2)CC1 [Example 9, (E)-3-(3,4-dichlorophenyl)-N-(2-(4-(methylsulfonyl)piperazin-1-yl)-2-oxoethyl)acrylamide]
cell viability IC50 relative to ML264 and SR15006 [1]: about one log unit lower than those for ML264 and SR15006 | subG1 population [3]: significant increase in the number of cells within the subG1 population | tumor growth vs vehicle-treated mice ([4]; i.p., 5-25 mg/kg once or twice a day): dose-dependent reduction in tumor growth | growth of CRC xenografts ([4]; once a day 10 mg/kg): strong inhibitory effects | levels of cyclins (Cyclin D1, E, A2, and B1): significant reduction in the levels of tested cyclins
